Results from ChEMBL document CHEMBL1201862, “PubChem BioAssay data set” (2004).
Active and inactive are the calls of the source.

Legend:
[1] = biological target: T1, Coagulation factor XII (Homo sapiens, UniProt P00748); test: Factor XIIa Dose Response Confirmation from Single Well HTS. [Related pubchem assays (depositor defined):AID701]; assay type: functional
T1 sequence (P00748 whole entry): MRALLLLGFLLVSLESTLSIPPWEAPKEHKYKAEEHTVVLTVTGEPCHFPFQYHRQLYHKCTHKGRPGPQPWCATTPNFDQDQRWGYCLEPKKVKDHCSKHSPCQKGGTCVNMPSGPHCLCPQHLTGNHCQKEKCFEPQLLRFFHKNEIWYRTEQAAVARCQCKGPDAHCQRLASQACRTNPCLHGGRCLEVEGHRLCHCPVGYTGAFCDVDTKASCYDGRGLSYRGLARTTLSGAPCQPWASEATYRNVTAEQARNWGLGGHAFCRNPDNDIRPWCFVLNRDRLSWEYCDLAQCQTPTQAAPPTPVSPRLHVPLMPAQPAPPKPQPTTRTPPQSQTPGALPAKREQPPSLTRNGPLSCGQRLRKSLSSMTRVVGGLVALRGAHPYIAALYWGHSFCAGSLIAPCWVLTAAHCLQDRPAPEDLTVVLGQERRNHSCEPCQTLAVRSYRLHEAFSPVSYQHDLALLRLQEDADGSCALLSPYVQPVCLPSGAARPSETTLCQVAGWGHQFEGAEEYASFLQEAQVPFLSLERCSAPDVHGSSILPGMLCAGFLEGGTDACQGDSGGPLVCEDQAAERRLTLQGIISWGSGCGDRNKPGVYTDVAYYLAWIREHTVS

[2] = biological target: Alkaline phosphatase, placental type (Homo sapiens, UniProt P05187); test: PLAP enzyme inhibitors, confirmation, biochemical, luminescence (AID 1512); assay type: functional
[3] = biological target: FAD-linked sulfhydryl oxidase ALR (Homo sapiens, UniProt P55789); test: inhibitors of human ALR sulfhydryl oxidase, dose response, biochemical, H2O2 detection, luminescence, cherry-pick (AID 493248)
[4] = biological target: T2, Corticotropin-releasing factor receptor 2/Corticotropin-releasing factor-binding protein (Homo sapiens, UniProt P24387+Q13324); test: activators of CRF receptor 2 with binding protein – uHTS hits, confirmation (AID 602473); assay type: functional; conditions: read-out: EC50_Mean
T2 sequence (Q13324 whole entry): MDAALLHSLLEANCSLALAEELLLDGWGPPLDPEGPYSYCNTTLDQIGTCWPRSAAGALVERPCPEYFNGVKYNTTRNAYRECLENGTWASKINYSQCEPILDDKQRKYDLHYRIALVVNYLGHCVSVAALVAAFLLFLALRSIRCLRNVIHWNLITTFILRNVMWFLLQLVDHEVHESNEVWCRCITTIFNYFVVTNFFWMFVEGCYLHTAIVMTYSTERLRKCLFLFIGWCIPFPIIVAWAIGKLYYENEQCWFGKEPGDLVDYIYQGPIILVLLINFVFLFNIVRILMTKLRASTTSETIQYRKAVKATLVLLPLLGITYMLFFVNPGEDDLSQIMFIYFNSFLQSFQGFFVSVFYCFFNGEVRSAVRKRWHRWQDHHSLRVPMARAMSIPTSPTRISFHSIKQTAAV
T2 sequence (P24387 whole entry): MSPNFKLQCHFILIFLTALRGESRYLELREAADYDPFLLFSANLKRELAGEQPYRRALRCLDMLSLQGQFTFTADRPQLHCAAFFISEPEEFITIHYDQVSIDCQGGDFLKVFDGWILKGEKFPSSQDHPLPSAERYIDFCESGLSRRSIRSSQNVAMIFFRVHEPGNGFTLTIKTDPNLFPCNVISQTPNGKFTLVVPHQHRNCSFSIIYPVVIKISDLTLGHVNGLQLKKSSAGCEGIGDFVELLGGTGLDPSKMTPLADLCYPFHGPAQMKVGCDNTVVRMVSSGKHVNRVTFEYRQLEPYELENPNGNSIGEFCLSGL

[5] = biological target: Ion channel NompC (Danio rerio, UniProt Q7T1G6); test: Dose response cell-based high-throughput screening assay for agonists of the transient receptor potential channel N1 (TRPN1). [Related pubchem assays (depositor defined):AID1424, AID1448]; assay type: functional
[6] = system: Vero; test: cells; assay type: functional; conditions: Chlorocebus sabaeus
[7] = biological target: Mucolipin-3 (Homo sapiens, UniProt Q8TDD5); test: Fluorescence counterscreen assay for […] agonists: dose response cell-based high-throughput screening assay to identify agonists of the transient receptor potential channel ML3 (TRPML3). [Related pubchem assays: 1424, 1448 ]; assay type: functional
[8] = biological target: Sphingosine 1-phosphate receptor 4 (Homo sapiens, UniProt O95977); test: Late-stage fluorescence dose response cell-based assay to identify agonists of the Sphingosine 1-Phosphate Receptor 4 (S1P4): purchased compounds EC50. [Related pubchem assays (depositor defined):AID1509, AID1523, AID1563, AID1686, AID1701, AID1801]; assay type: functional
[9] = biological target: Epstein-Barr nuclear antigen 1 (Epstein-Barr virus (strain B95-8) (HHV-4) (Human herpesvirus 4), UniProt P03211); test: EBNA-1 inhibitors, dose response, biochemical, fluorescence polarization, 1536-well (AID 2381); set-up: species or system human gammaherpesvirus 4;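 further: fluorescence polarization of a Cy5 DNA probe bound by EBNA-1 protein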
[10] = biological target: Lytic switch protein BZLF1 (Epstein-Barr virus (strain B95-8) (HHV-4) (Human herpesvirus 4), UniProt P03206); test: EBV ZTA inhibitors, dose response, counter-screen for EBNA-1 inhibitor project, biochemical, fluorescence polarization, Epstein-Barr virus, 1536-well (AID 2377); set-up: species or system human gammaherpesvirus 4;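 further: fluorescence polarization of Cy5-labelled ZRE DNA probe bound by purified Zta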
[11] = biological target: Mu-type opioid receptor (Homo sapiens, UniProt P35372); test: SAR Analysis of Antagonists of the MOR Receptor using an Image-Based Assay - Set 3. [Related pubchem assays (depositor defined):AID1777, AID1785, AID1786, AID1966, AID2133, AID2136, AID2284, AID2285, AID2420]; assay type: functional
[12] = biological target: T3, Kappa-type opioid receptor (Homo sapiens, UniProt P41145); test: SAR analysis of small molecule antagonists of the kappa opioid receptor via a luminescent beta-arrestin assay - Set 3. [Related pubchem assays (depositor defined):AID1777, AID1778, AID1785, AID1786, AID1966, AID2133, AID2136, AID2285, AID2495]; assay type: functional
T3 sequence (P41145 whole entry): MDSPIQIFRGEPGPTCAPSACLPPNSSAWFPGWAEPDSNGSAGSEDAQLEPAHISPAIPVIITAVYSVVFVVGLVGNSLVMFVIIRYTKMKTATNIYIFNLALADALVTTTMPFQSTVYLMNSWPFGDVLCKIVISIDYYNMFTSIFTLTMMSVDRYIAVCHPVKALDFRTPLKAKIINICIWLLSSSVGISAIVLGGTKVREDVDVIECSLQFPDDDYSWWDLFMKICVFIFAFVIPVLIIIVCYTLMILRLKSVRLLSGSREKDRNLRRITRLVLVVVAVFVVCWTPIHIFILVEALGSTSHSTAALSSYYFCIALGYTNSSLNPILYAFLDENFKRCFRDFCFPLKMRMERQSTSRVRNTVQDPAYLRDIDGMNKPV

[13] = biological target: T3, Kappa-type opioid receptor; test: SAR analysis of Antagonists of the Kappa Opioid Receptor (KOR) using an Image-Based Assay - Set 4. [Related pubchem assays (depositor defined):AID1777, AID1785]; assay type: functional
[14] = biological target: Delta-type opioid receptor (Homo sapiens, UniProt P41143); test: SAR Analysis of Antagonists of the DOR Receptor using an Image-Based Assay - Set 3. [Related pubchem assays (depositor defined):AID1777, AID1785]; assay type: functional;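 further: U2OS cells expressing DOR1 and beta-arrestin GFP stimulated with 100 nM SNC80; imaging of GFP-tagged beta-arrestin moving into spots after receptor activation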
[15] = biological target: T4, Intestinal-type alkaline phosphatase (Homo sapiens, UniProt P09923); test: human intestinal alkaline phosphatase activators, dose response, biochemical, luminescence, uHTS hits (AID 463120); assay type: functional
T4 sequence (P09923 whole entry): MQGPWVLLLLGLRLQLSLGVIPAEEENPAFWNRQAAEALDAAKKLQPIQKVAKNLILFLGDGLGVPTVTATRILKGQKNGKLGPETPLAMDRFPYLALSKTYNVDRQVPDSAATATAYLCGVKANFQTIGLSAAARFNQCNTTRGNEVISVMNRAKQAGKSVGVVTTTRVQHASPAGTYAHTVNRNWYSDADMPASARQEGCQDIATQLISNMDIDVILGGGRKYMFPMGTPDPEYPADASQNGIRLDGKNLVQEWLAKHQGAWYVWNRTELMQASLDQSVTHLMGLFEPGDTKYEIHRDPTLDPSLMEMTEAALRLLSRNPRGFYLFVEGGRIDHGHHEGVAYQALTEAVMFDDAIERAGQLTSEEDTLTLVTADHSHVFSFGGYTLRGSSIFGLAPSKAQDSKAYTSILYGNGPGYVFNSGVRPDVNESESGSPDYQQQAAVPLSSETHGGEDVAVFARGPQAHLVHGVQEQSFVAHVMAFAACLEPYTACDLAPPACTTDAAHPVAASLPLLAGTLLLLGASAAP

[16] = biological target: T4, Intestinal-type alkaline phosphatase; test: Dose Response confirmation of uHTS hits from a small molecule inhibitors of human intestinal alkaline phosphatase via a luminescent assay. [Related pubchem assays (depositor defined):AID2544, AID2574]; assay type: functional
[17] = decrease of PhoP-driven GFP reporter signal, S. Typhimurium, dose response, PhoP regulon inhibitor project, purified and synthesized compounds, set 2 (AID 2831); assay type: functional
[18] = biological target: Integrin alpha-4 (Homo sapiens, UniProt P13612); test: VLA-4 integrin allosteric ligands, SAR follow-up, cell-based, LIBS antibody binding, flow cytometry (AID 488791); assay type: functional
[19] = biological target: T5, Voltage-gated N-type calcium channel alpha-1B subunit/Amyloid beta A4 precursor protein-binding family A member 1 (Homo sapiens, UniProt Q00975+Q02410); assay type: protein assay
T5 sequence (Q00975 whole entry, the tested form may be a part): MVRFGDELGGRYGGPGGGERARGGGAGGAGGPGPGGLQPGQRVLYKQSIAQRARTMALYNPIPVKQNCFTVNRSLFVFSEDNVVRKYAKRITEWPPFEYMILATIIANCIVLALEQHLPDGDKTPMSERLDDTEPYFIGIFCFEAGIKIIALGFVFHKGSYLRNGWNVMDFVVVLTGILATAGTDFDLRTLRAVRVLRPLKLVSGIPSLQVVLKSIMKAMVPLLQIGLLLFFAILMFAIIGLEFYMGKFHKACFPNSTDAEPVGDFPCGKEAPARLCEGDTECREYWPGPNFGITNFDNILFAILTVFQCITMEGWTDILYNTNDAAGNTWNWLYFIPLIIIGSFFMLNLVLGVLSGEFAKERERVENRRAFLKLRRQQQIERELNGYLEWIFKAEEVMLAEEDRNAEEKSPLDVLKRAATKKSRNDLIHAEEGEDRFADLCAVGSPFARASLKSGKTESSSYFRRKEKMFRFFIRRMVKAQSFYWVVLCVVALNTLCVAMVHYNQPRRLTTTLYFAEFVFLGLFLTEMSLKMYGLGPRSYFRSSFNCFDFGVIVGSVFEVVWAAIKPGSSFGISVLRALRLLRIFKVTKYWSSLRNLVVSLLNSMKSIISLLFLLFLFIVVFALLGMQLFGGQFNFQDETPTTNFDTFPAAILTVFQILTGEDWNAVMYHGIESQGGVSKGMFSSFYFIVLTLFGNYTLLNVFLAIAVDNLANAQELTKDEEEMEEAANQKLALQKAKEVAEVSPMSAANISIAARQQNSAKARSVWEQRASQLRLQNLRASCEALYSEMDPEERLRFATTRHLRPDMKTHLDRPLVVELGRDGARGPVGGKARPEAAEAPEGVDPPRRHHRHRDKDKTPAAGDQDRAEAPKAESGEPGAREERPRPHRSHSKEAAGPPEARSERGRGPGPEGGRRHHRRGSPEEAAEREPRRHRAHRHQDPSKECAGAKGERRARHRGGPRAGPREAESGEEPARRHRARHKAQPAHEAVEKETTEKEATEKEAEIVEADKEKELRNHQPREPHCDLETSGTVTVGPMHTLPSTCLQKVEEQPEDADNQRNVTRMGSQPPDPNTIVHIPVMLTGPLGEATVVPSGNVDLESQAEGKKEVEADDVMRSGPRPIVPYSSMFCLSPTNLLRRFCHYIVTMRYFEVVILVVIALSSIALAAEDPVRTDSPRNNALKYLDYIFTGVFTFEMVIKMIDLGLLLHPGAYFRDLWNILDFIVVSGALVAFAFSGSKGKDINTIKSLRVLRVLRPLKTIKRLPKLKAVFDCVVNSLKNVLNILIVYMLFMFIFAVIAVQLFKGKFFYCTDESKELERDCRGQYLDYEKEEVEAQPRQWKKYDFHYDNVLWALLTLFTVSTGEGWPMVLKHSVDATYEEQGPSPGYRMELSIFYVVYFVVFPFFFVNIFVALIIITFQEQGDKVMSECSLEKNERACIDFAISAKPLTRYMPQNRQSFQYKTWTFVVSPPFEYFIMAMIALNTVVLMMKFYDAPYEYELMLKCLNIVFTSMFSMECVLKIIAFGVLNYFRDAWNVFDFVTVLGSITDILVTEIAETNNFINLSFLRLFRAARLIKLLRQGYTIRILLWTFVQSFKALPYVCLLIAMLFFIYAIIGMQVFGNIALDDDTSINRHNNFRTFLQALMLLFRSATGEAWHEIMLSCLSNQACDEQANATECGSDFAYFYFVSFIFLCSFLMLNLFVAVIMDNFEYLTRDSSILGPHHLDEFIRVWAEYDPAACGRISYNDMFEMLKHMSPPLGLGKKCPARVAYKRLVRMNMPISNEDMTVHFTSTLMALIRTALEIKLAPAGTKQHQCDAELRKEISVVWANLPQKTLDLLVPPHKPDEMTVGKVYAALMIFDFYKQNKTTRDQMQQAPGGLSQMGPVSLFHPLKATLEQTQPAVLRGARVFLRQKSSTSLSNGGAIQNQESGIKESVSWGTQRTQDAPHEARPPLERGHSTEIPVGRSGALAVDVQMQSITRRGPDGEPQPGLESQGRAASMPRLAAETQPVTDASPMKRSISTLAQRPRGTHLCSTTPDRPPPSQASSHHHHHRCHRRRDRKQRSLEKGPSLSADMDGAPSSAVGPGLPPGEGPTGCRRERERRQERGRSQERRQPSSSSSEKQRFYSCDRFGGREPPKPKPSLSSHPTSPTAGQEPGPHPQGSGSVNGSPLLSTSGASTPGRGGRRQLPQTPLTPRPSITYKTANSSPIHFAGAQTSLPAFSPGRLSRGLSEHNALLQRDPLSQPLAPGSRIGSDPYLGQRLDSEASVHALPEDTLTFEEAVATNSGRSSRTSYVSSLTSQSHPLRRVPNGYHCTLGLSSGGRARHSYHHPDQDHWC
T5 sequence (Q02410 whole entry, the tested form may be a part): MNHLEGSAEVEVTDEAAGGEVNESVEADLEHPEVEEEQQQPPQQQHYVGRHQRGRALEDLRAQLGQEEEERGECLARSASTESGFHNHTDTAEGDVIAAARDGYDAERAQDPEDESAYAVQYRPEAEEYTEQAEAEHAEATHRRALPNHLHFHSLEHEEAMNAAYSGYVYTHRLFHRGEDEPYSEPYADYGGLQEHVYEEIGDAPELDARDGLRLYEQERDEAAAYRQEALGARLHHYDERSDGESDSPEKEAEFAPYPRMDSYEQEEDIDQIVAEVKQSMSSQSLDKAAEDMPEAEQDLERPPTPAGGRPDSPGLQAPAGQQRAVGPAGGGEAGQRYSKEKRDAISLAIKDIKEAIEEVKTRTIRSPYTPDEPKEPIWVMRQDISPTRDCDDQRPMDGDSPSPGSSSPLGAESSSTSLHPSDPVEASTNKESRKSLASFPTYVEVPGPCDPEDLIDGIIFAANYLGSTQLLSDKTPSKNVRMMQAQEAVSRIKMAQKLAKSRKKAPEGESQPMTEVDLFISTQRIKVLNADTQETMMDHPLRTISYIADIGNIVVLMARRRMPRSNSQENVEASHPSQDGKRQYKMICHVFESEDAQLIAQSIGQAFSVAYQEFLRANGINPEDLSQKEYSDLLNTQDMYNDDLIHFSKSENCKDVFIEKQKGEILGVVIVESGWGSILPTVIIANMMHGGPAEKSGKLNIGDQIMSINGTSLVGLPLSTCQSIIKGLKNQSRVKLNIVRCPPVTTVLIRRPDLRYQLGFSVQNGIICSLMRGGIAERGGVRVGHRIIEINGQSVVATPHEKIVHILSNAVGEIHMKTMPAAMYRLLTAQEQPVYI

[20] = biological target: T6, RNA-binding protein pos-1 (Caenorhabditis elegans, UniProt G5EF15); test: inhibitors of POS-1/mex-3 RNA binding, dose response, biochemical, fluorescence polarization (AID 1964);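 further: purified POS-1 fused to maltose binding protein made in E. coli; potency of compounds blocking POS-1 binding to fluorescent RNA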
T6 sequence (G5EF15 whole entry): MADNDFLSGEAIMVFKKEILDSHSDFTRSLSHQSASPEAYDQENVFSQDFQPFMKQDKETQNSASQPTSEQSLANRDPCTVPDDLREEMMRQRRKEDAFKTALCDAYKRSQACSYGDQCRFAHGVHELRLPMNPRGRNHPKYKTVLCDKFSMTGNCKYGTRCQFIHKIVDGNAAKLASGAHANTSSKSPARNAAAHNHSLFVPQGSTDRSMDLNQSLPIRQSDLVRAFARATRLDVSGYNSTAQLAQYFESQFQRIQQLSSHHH

[21] = biological target: T5, Voltage-gated N-type calcium channel alpha-1B subunit/Amyloid beta A4 precursor protein-binding family A member 1; assay type: protein assay; remark: listed apart in the source
[22] = biological target: T7, Zinc finger protein mex-5 (Caenorhabditis elegans, UniProt Q9XUB2); test: MEX-5/TCR-2 RNA interaction inhibitors, dose response, biochemical, C. elegans, fluorescence polarization (AID 1960)
T7 sequence (Q9XUB2 whole entry): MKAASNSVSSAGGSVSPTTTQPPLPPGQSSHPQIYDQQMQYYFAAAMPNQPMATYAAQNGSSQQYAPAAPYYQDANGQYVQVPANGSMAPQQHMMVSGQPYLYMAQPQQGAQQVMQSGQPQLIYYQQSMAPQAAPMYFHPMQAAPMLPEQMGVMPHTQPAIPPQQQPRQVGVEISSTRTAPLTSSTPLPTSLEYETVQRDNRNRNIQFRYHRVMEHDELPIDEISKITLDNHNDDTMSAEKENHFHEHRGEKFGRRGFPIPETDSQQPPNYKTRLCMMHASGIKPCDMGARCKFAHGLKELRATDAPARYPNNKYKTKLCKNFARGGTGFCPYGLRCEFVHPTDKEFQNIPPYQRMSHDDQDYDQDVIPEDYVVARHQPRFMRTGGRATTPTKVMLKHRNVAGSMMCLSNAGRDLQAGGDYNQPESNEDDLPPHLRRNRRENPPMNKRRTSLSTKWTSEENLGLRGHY

[23] = biological target: Induced myeloid leukemia cell differentiation protein Mcl-1 (Homo sapiens, UniProt Q07820); assay type: functional
[24] = biological target: T8, SUMO-activating enzyme (Homo sapiens, UniProt Q9UBT2); test: SUMOylation inhibitor hit validation, confirmation, SUMOylation inhibitor project, biochemical, AlphaScreen (AID 2018); assay type: functional
T8 sequence (Q9UBE0 whole entry): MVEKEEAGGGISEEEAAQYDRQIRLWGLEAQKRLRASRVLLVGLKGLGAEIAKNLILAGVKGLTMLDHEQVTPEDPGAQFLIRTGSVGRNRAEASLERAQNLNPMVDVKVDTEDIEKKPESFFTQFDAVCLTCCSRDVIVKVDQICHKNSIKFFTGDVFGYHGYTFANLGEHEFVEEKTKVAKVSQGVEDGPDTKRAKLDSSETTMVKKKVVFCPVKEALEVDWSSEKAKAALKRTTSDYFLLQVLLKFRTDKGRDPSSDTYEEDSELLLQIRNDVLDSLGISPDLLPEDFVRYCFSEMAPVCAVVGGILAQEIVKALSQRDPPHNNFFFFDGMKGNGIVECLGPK
T8 sequence (Q9UBT2 whole entry): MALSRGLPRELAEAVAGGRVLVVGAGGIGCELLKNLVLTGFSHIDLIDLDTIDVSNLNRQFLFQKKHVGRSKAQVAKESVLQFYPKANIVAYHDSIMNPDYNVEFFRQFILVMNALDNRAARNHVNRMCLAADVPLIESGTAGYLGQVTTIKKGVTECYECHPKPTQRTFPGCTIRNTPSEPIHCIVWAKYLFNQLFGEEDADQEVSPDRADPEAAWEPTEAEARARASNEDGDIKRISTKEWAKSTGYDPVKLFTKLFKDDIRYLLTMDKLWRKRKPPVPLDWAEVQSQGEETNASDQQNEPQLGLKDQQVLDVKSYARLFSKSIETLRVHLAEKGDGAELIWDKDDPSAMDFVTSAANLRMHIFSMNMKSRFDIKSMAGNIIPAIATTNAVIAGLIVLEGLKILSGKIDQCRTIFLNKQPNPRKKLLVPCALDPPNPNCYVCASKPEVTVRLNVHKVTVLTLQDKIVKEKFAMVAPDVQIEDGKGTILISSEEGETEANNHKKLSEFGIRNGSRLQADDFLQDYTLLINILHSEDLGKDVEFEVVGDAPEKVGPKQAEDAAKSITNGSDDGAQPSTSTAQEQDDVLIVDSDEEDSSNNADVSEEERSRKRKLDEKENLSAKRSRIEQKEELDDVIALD

[25] = biological target: T8, SUMO-activating enzyme; test: inhibitors of in vitro SUMOylation cascade, primary screen, biochemical, HTRF, uHTS (AID 2006); assay type: protein-complex assay

**Q.** Which IC50 [1] does the source give for Cc1ccc(CNC(=O)C[S+]([O-])CC(=O)O)cc1 (stereo not given) here?
**A.** > 50 µM (inactive)

**Q.** Which results are given for O=C(NNc1ccccn1)C(=O)NNS(=O)(=O)c1ccc(Cl)cc1?
**A.** IC50 [2]: > 100 µM (inactive); AC50 [3]: 786 nM (active)

**Q.** For Cc1ccc(S(=O)(=O)Nc2ccc(NC(=O)c3c(F)c(F)c(F)c(F)c3F)cc2)cc1, which EC50 [4] is on record?
**A.** 5.66 µM (active)

**Q.** And the EC50 [5]?
**A.** > 29.9 µM (inactive)

**Q.** And the CC50 [6]?
**A.** 23 µM (active)

**Q.** And the EC50 [7]?
**A.** > 29.9 µM (not active)

**Q.** For Cc1nn(Cc2ccccc2)c(Cl)c1C(=O)OC(C)C(=O)Nc1ccc(F)cc1Cl (stereo not given), which EC50 [8] is on record?
**A.** > 50 µM (inactive)

**Q.** What about the IC50 [9] of the same compound?
**A.** 5.89 µM (active)

**Q.** And the IC50 [10]?
**A.** > 111 µM (not active)

**Q.** With COc1ccc(N2CCN(CCCNC(=O)Cn3c(=O)c4cccn4c4cc(Br)cnc43)CC2)c(OC)c1 as the compound, how does the IC50 [11] read?
**A.** 10.2 µM (inactive)

**Q.** What about the IC50 [12] of the same compound?
**A.** 2.82 µM (active)

**Q.** What about the IC50 [13] of the same compound?
**A.** 3.02 µM (active)

**Q.** And the IC50 [14]?
**A.** > 32 µM (inactive)

**Q.** With CC1(C)C[C@@H](O)CC2(C1)C[C@]1(C)CC(O)[C@H]2C(C)(C)C1 (stereo not given in full) as the compound, how does the EC50 [15] read?
**A.** > 100 µM (inactive)

**Q.** What about the IC50 [16] of the same compound?
**A.** > 100 µM (inactive)

**Q.** With O=C1C2=C(Nc3ccccc3SC2c2cccc(Cl)c2)c2ccccc21 (stereo not given) as the compound, how does the IC50 [17] read?
**A.** > 150 µM (active)

**Q.** For Cc1ccc(NC(=O)c2cc(N3C(=O)CCC3=O)ccc2N2CCOCC2)cc1Cl, which EC50 [18] is on record?
**A.** 23.3 µM (active)

**Q.** What does the source list for COc1cc(OC)c2c(O)c3c(c(-c4c5c(c(O)c6c(OC)cc(OC)cc46)CO[C@@H](C)[C@H]5O)c2c1)[C@H](O)[C@H](C)OC3?
**A.** IC50 [19]: 4.27 µM (active); EC50 [20]: > 300 µM (not active); IC50 [21]: 20.3 µM (active); EC50 [22]: > 300 µM (not active); IC50 [23]: 2.51 µM (not active); IC50 [24]: 6.03 µM (active); IC50 [25]: 17.1 µM (active)
